Assay results taken from PubChem BioAssay AID280 (DTP/NCI, 2004).
Values joined by “and” are separate entries in the source; they are usually repeats but may differ in a detail not shown here. Identical values can stand only once. Toxic doses and inconclusive results are not listed. Starred links: 1 amine or outer side, 2 acyl side, 3 side chain; linkers in the order of their positions; H or OH if unused. Positions of bridges follow the written chain, without caps; N, C: chain ends. Non-standard residues stand in square brackets, D forms with d. Residues, ends and D or L forms follow the SMILES beside them. Chains are numbered I, II in the order given. Actinocin(9to1) = Cc1c2oc3c(C)ccc(C(=O)[*:1])c3nc-2c(C(=O)[*:2])c(N)c1=O; aThr = C[C@H](O)[C@H](N)C(=O)O; NMeV = CN[C@H](C(=O)O)C(C)C; Sar = CNCC(=O)O

Tested on: nude mice, LOX melanoma ip, survival T/C
Test: NCI In Vivo Anticancer Drug Screen. Data for tumor model Human Amelanotic Melanoma (LOX) (intraperitoneal) in NU/NU BALB/C (nude) mice
Conditions: endpoint: median survival time, higher = longer survival
Description: The antitumor activity of compounds was measured in mice bearing transplantable tumors. Survival or tumor size were measured and the results are expressed as the measurement made in the treated group (T) divided by the measurement made in the vehicle treated control group (C). The tumor model used in this assay is Human Amelanotic Melanoma (LOX) (intraperitoneal) in NU/NU BALB/C (nude) mice

[1] = dose: 150.0 mg/kg/injection, schedule: Q04DX003 (ip), vehicle: saline with Tween-80
[2] = dose: 75.0 mg/kg/injection, schedule: Q04DX003 (ip), vehicle: saline with Tween-80
[3] = dose: 300.0 mg/kg/injection, schedule: Q04DX003 (ip), vehicle: saline with Tween-80

How did the T/C (dose: 0.07 mg/kg/injection, schedule: Q04DX003 (ip), vehicle: saline) turn out when `Cc1c2oc3c(C)ccc(C(=O)N[C@@H]4C(=O)N[C@H](C(C)C)C(=O)N5CCC[C@H]5C(=O)N(C)CC(=O)N(C)[C@@H](C(C)C)C(=O)O[C@H]4C)c3nc-2c(C(=O)N[C@@H]2C(=O)N[C@H](C(C)C)C(=O)N3CCC[C@H]3C(=O)N(C)CC(=O)N(C)[C@@H](C(C)C)C(=O)O[C@H]2C)c(N)c1=O` (I: [aThr][dV]P[Sar][NMeV] / II: [aThr][dV]P[Sar][NMeV]; ester I:1-I:C, II:1-II:C; linker I:N-II:N via Actinocin(9to1)) was run?
Its T/C is 185 % of control.

What about the T/C (dose: 0.13 mg/kg/injection, schedule: Q01DX001 (ip), vehicle: saline) of the same compound?
The T/C was 151 % of control.

And the T/C (dose: 0.13 mg/kg/injection, schedule: Q04DX003 (ip), vehicle: saline)?
Its T/C is 269 % of control.

What about the T/C (dose: 0.25 mg/kg/injection, schedule: Q01DX001 (ip), vehicle: saline) of the same compound?
The T/C was 153 % of control.

What about the T/C (dose: 0.25 mg/kg/injection, schedule: Q04DX003 (ip), vehicle: saline) of the same compound?
Its T/C is 337 % of control.

And the T/C (dose: 0.5 mg/kg/injection, schedule: Q01DX001 (ip), vehicle: saline)?
The T/C was 264 % of control.

And the T/C (dose: 0.5 mg/kg/injection, schedule: Q04DX003 (ip), vehicle: saline)?
The T/C was 337 % of control.

And the T/C (dose: 1.0 mg/kg/injection, schedule: Q01DX001 (ip), vehicle: saline)?
Its T/C is 337 % of control.

What about the T/C (dose: 1.3 mg/kg/injection, schedule: Q04DX003 (ip), vehicle: saline) of the same compound?
Its T/C is 87 % of control.

And the T/C (dose: 0.13 micrograms/kg/injection, schedule: Q01DX005 (ip), vehicle: saline)?
The T/C was 162 % of control.

What about the T/C (dose: 0.13 micrograms/kg/injection, schedule: Q01DX015 (ip), vehicle: saline) of the same compound?
The T/C was 207 % of control.

What about the T/C (dose: 25.0 micrograms/kg/injection, schedule: Q01DX005 (ip), vehicle: saline) of the same compound?
Its T/C is 191 % of control.

And the T/C (dose: 25.0 micrograms/kg/injection, schedule: Q01DX015 (ip), vehicle: saline)?
Its T/C is 337 % of control.

What about the T/C (dose: 50.0 micrograms/kg/injection, schedule: Q01DX005 (ip), vehicle: saline) of the same compound?
The T/C was 337 % of control.

What about the T/C (dose: 50.0 micrograms/kg/injection, schedule: Q01DX015 (ip), vehicle: saline) of the same compound?
Its T/C is 337 % of control.

And the T/C (dose: 100.0 micrograms/kg/injection, schedule: Q01DX005 (ip), vehicle: saline)?
The T/C was 337 % of control.

And the T/C (dose: 100.0 micrograms/kg/injection, schedule: Q01DX015 (ip), vehicle: saline)?
The T/C was 337 % of control.

What does the source list for `COc1cc2c[n+](C)c3c(c2cc1OC)Cc1cc2c(cc1-3)OCO2`?
T/C (dose: 18.75 mg/kg/injection, schedule: Q04DX003 (ip), vehicle: saline with Tween-80): 108 % of control; T/C [1]: 201 % of control

With `CC1C(c2ccccc2)OC(N2CCOCC2)C(C)(C)CN1C` (stereo not given) as the compound, how does the T/C [2] read?
Its T/C is 105 % of control.

And the T/C [1]?
Its T/C is 93 % of control.

What about the T/C [3] of the same compound?
The T/C was 90 % of control.

For `O=C1C2=C(C(=O)c3cnccc31)C1C=CC2CC1` (stereo not given), which T/C (dose: 25.0 mg/kg/injection, schedule: Q04DX003 (ip), vehicle: DMSO) is on record?
Its T/C is 93 % of control.

Which T/C (dose: 7.5 mg/kg/injection, schedule: Q04DX003 (ip), vehicle: saline) does the source give for `CCOC(=O)N(C)N=NC` here?
Its T/C is 108 % of control and 109 % of control.

And the T/C (dose: 15.0 mg/kg/injection, schedule: Q04DX003 (ip), vehicle: saline)?
Its T/C is 107 % of control and 114 % of control (2×).

What about the T/C (dose: 30.0 mg/kg/injection, schedule: Q04DX003 (ip), vehicle: saline) of the same compound?
Its T/C is 121 % of control.

What about the T/C (dose: 60.0 mg/kg/injection, schedule: Q04DX003 (ip), vehicle: saline) of the same compound?
The T/C was 194 % of control.

What about the T/C (dose: 120.0 mg/kg/injection, schedule: Q04DX003 (ip), vehicle: saline) of the same compound?
Its T/C is 172 % of control and 191 % of control and 205 % of control.

`C[n+]1c(-c2ccc(NC(=O)c3ccc(C(=O)Nc4ccc(-c5cn6ccccc6[n+]5C)cc4)cc3)cc2)cn2ccccc21` was tested. Which T/C (dose: 12.5 mg/kg/injection, schedule: Q04DX003 (ip), vehicle: saline with Tween-80) did it give?
The T/C was 114 % of control.

What about the T/C (dose: 25.0 mg/kg/injection, schedule: Q04DX003 (ip), vehicle: saline with Tween-80) of the same compound?
The T/C was 103 % of control.

What about the T/C (dose: 50.0 mg/kg/injection, schedule: Q04DX003 (ip), vehicle: saline with Tween-80) of the same compound?
Its T/C is 97 % of control.

Which T/C [2] does the source give for `CN(C=O)C(C(=O)Nc1cccc2c(OC(=O)C(N(C)C=O)(N(C)C=O)N(C)C=O)c(N=Nc3ccc(S(=O)(=O)Nc4nccs4)cc3)cc(N=Nc3ccc(S(=O)(=O)Nc4nccs4)cc3)c12)(N(C)C=O)N(C)C=O` (tested in a mixture with another compound) here?
Its T/C is 101 % of control.

What about the T/C [1] of the same compound?
Its T/C is 99 % of control.

What about the T/C [3] of the same compound?
Its T/C is 89 % of control.

What about the T/C (dose: 600.0 mg/kg/injection, schedule: Q04DX003 (ip), vehicle: saline with Tween-80) of the same compound?
Its T/C is 95 % of control.

What about the T/C (dose: 1200.0 mg/kg/injection, schedule: Q04DX003 (ip), vehicle: saline with Tween-80) of the same compound?
Its T/C is 93 % of control.

How did the T/C (dose: 25.0 mg/kg/injection, schedule: Q04DX003 (ip), vehicle: Klucel (hydroxypropylcellulose) (HPC)) turn out when `CC1=C(C(N)=O)C(c2ccccc2)NC(=S)N1` (stereo not given) was run?
The T/C was 96 % of control.

And the T/C (dose: 50.0 mg/kg/injection, schedule: Q04DX003 (ip), vehicle: Klucel (hydroxypropylcellulose) (HPC))?
The T/C was 98 % of control.

What about the T/C (dose: 100.0 mg/kg/injection, schedule: Q04DX003 (ip), vehicle: Klucel (hydroxypropylcellulose) (HPC)) of the same compound?
Its T/C is 97 % of control.

What about the T/C (dose: 200.0 mg/kg/injection, schedule: Q04DX003 (ip), vehicle: Klucel (hydroxypropylcellulose) (HPC)) of the same compound?
The T/C was 95 % of control.

And the T/C (dose: 400.0 mg/kg/injection, schedule: Q04DX003 (ip), vehicle: Klucel (hydroxypropylcellulose) (HPC))?
Its T/C is 86 % of control.

What does the source list for `CCS/C(SC)=C(/c1ccccc1)[P+](c1ccccc1)(c1ccccc1)c1ccccc1`?
T/C (dose: 0.81 mg/kg/injection, schedule: Q04DX003 (ip), vehicle: Klucel (hydroxypropylcellulose) (HPC)): 106 % of control; T/C (dose: 1.35 mg/kg/injection, schedule: Q04DX003 (ip), vehicle: Klucel (hydroxypropylcellulose) (HPC)): 106 % of control; T/C (dose: 2.25 mg/kg/injection, schedule: Q04DX003 (ip), vehicle: Klucel (hydroxypropylcellulose) (HPC)): 118 % of control; T/C (dose: 3.12 mg/kg/injection, schedule: Q04DX003 (ip), vehicle: Klucel (hydroxypropylcellulose) (HPC)): 95 % of control; T/C (dose: 3.76 mg/kg/injection, schedule: Q04DX003 (ip), vehicle: Klucel (hydroxypropylcellulose) (HPC)): 100 % of control; T/C (dose: 6.25 mg/kg/injection, schedule: Q04DX003 (ip), vehicle: Klucel (hydroxypropylcellulose) (HPC)): 94 % of control

`NC(Cn1ccc(=O)c(O)c1)C(=O)O` (stereo not given) was tested. Which T/C (dose: 75.0 mg/kg/injection, schedule: Q04DX003 (ip), vehicle: suspension in saline) did it give?
Its T/C is 105 % of control.

And the T/C (dose: 150.0 mg/kg/injection, schedule: Q04DX003 (ip), vehicle: suspension in saline)?
Its T/C is 105 % of control.

What about the T/C (dose: 300.0 mg/kg/injection, schedule: Q04DX003 (ip), vehicle: suspension in saline) of the same compound?
Its T/C is 109 % of control.

And the T/C (dose: 600.0 mg/kg/injection, schedule: Q04DX003 (ip), vehicle: suspension in saline)?
The T/C was 100 % of control.

And the T/C (dose: 1200.0 mg/kg/injection, schedule: Q04DX003 (ip), vehicle: suspension in saline)?
The T/C was 104 % of control.

Which results are given for `[CH3][Sn]([CH3])([Cl])[c]1cc[c]([Sn]([CH3])([CH3])[Cl])cc1`?
T/C (dose: 0.63 mg/kg/injection, schedule: Q04DX003 (ip), vehicle: saline): 91 % of control; T/C (dose: 1.25 mg/kg/injection, schedule: Q04DX003 (ip), vehicle: saline): 103 % of control; T/C (dose: 2.5 mg/kg/injection, schedule: Q04DX003 (ip), vehicle: saline): 98 % of control; T/C (dose: 5.0 mg/kg/injection, schedule: Q04DX003 (ip), vehicle: saline): 107 % of control

Which results are given for `NC(Cc1ccccc1)C(=O)OCN1C(=O)C2C3C=CC(C2C1=O)C1C2C(=O)N(COC(=O)C(N)Cc4ccccc4)C(=O)C2C31` (stereo not given)?
T/C (dose: 25.0 mg/kg/injection, schedule: Q04DX003 (ip), vehicle: water): 105 % of control; T/C (dose: 50.0 mg/kg/injection, schedule: Q04DX003 (ip), vehicle: water): 109 % of control; T/C (dose: 100.0 mg/kg/injection, schedule: Q04DX003 (ip), vehicle: water): 107 % of control; T/C (dose: 200.0 mg/kg/injection, schedule: Q04DX003 (ip), vehicle: water): 116 % of control
